# Results from the supplement of paper PMC11061612.
# Columns and labels:
# Test in all cases: Bliss excess, mean over the matrix (fraction); higher = more synergy
# [1] = test system: BE-13 (T-Lymphoblastic Leukemia)
# Outline: (§1)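 Cell lines in DMEM/F12 or RPMI with 10% FBS were plated in 1536-well plates, held 24 hours at 37°C, 5% CO2, then given two-drug dose matrices for 72 hours (DMSO typically 0.2%). Viability was read by CellTiter-Glo 2.0 luminescence and scaled as inhibition from 0 (vehicle wells) to 1 (blank wells). Combination Emax is the second-highest inhibition in the matrix; Bliss excess is observed combination effect minus expected EA + EB − EA·EB, EA and EB being single-agent effects.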
# BE2-M17 (Neuroblastoma) = test system: BE2-M17 (Neuroblastoma)
# Outline: as §1
# [2] = test system: CAL-33 (Oral Cavity Carcinoma)
# Outline: as §1
# CAL-72 (Osteosarcoma) = test system: CAL-72 (Osteosarcoma)
# Outline: as §1
# EW-11 (Ewing's Sarcoma) = test system: EW-11 (Ewing's Sarcoma)
# Outline: as §1
# GAMG (Glioblastoma) = test system: GAMG (Glioblastoma)
# Outline: as §1
# [3] = test system: HeLa (Cervical Carcinoma)
# Outline: as §1
# [4] = test system: HuH-7 (Hepatocellular Carcinoma)
# Outline: as §1
# KS-1 (Glioblastoma) = test system: KS-1 (Glioblastoma)
# Outline: as §1
# [5] = test system: L-428 (Hodgkin's Lymphoma)
# Outline: as §1
# [6] = test system: LS-123 (Colorectal Carcinoma)
# Outline: as §1
# [7] = test system: NCI-H1568 (Lung Adenocarcinoma)
# Outline: as §1
# [8] = test system: NCI-H209 (Small Cell Lung Carcinoma)
# Outline: as §1
# NCI-H2722 (Mesothelioma) = test system: NCI-H2722 (Mesothelioma)
# Outline: as §1
# [9] = test system: NCI-H524 (Small Cell Lung Carcinoma)
# Outline: as §1
# [10] = test system: OE21 (Esophageal Squamous Cell Carcinoma)
# Outline: as §1
# [11] = test system: SNU-16 (Gastric Carcinoma)
# Outline: as §1
# [12] = test system: SNU-449 (Hepatocellular Carcinoma)
# Outline: as §1
# [13] = test system: TGBC1TKB (Biliary Tract Carcinoma)
# Outline: as §1
SMILES,Bliss excess [1],Bliss excess (BE2-M17 (Neuroblastoma)),Bliss excess [2],Bliss excess (CAL-72 (Osteosarcoma)),Bliss excess (EW-11 (Ewing's Sarcoma)),Bliss excess (GAMG (Glioblastoma)),Bliss excess [3],Bliss excess [4],Bliss excess (KS-1 (Glioblastoma)),Bliss excess [5],Bliss excess [6],Bliss excess [7],Bliss excess [8],Bliss excess (NCI-H2722 (Mesothelioma)),Bliss excess [9],Bliss excess [10],Bliss excess [11],Bliss excess [12],Bliss excess [13]
"COc1cccc(OCCCN)c1-c1cc(Nc2cnc(C#N)cn2)n[nH]1 [Prexasertib] + Cc1cc2ncnn2cc1Nc1ncc2c(n1)n(C1CCOCC1)c(=O)n2C [AZD7648] (first compound max 1 µM, 7x7, partner max 10 µM)",0.0364,0.0047,0.0099,-0.112,-0.0303,-0.0214,0.0133,-0.0199,0.0198,-0.0165,-0.0141,-0.0303,0,-0.012,-0.0204,-0.0116,-0.0059,-0.0861,-0.0747
"CN(C)CCCOc1ccc(-c2ccc3ncc4c(c3c2)n(C2CCOCC2)c(=O)n4C)cn1 [AZD0156] + CCN(CCO)CCCOc1ccc2c(Nc3cc(CC(=O)Nc4cccc(F)c4)[nH]n3)ncnc2c1 [AZD2811] (first compound max 1 µM, 7x7, partner max 1 µM)",-0.0908,0.0535,-0.0139,-0.0213,-0.084,-0.0244,-0.0136,-0.0381,0.0228,0.0314,-0.0409,-0.0376,0.0922,-0.0226,-0.0083,-0.0048,0.0244,-0.0656,-0.043
"COc1cccc(OCCCN)c1-c1cc(Nc2cnc(C#N)cn2)n[nH]1 [Prexasertib] + O=C(c1cc(Cc2n[nH]c(=O)c3ccccc23)ccc1F)N1CCN(C(=O)C2CC2)CC1 [Olaparib] (first compound max 1 µM, 7x7, partner max 10 µM)",-0.0341,-0.0225,-0.012,-0.135,-0.0849,0.0122,-0.0483,-0.0527,-0.0439,-0.0418,-0.0312,-0.0593,-0.0442,-0.0088,-0.0666,-0.0499,-0.0417,-0.0813,-0.0767
"C=CCn1c(=O)c2cnc(Nc3ccc(N4CCN(C)CC4)cc3)nc2n1-c1cccc(C(C)(C)O)n1 [AZD1775] + O=C(c1cc(Cc2n[nH]c(=O)c3ccccc23)ccc1F)N1CCN(C(=O)C2CC2)CC1 [Olaparib] (first compound max 1 µM, partner max 10 µM)",-0.0409,-0.0486,-0.0073,-0.0871,-0.121,0.0147,0.0346,-0.0107,-0.0097,-0.0252,-0.0694,-0.0745,-0.0579,-0.0143,0.0424,-0.0216,0.0102,-0.0418,-0.0558
"C=CCn1c(=O)c2cnc(Nc3ccc(N4CCN(C)CC4)cc3)nc2n1-c1cccc(C(C)(C)O)n1 [AZD1775] + C[C@@H]1COCCN1C2=NC(=NC(=C2)C3(CC3)[S@](=N)(=O)C)C4=C5C=CNC5=NC=C4 [AZD6738] (first compound max 1 µM, partner max 10 µM)",0.0159,0.103,0.0324,-0.0277,-0.0282,-0.0218,0.0883,0.0027,-0.0042,0.0246,-0.0519,-0.0346,0.0422,-0.0029,0.051,-0.0207,-0.0002,-0.0061,0.0388
"C[C@@H]1COCCN1c1cc(C2([S@](C)(=N)=O)CC2)nc(-c2ccnc3[nH]ccc23)n1 [AZD6738] + O=C(c1cc(Cc2n[nH]c(=O)c3ccccc23)ccc1F)N1CCN(C(=O)C2CC2)CC1 [Olaparib] (first compound max 10 µM, 7x7, partner max 10 µM)",0.0278,-0.0176,0.0047,-0.0183,-0.014,-0.0461,0.0497,0.0569,0,0.0227,0.0192,-0.0358,-0.0599,0.0087,0.0196,-0.007,-0.0054,0.0007,-0.0578
"CCN(CCO)CCCOc1ccc2c(Nc3cc(CC(=O)Nc4cccc(F)c4)[nH]n3)ncnc2c1 [AZD2811] + C[C@@H]1COCCN1C2=NC(=NC(=C2)C3(CC3)[S@](=N)(=O)C)C4=C5C=CNC5=NC=C4 [AZD6738] (first compound max 1 µM, 7x7, partner max 10 µM)",-0.148,0.0002,-0.0199,-0.0863,-0.0229,-0.0399,-0.0743,-0.0453,-0.0711,0.0145,-0.0258,-0.0514,0.0731,0.006,-0.0399,-0.142,-0.0281,-0.0536,-0.0184
"COc1cccc(OCCCN)c1-c1cc(Nc2cnc(C#N)cn2)n[nH]1 [Prexasertib] + CN(C)CCCOc1ccc(-c2ccc3ncc4c(c3c2)n(C2CCOCC2)c(=O)n4C)cn1 [AZD0156] (first compound max 1 µM, 7x7, partner max 1 µM)",-0.0338,-0.0185,-0.0018,-0.0922,-0.0705,-0.0261,0.0079,-0.0335,-0.0131,-0.0144,-0.0387,-0.032,0.0016,0.0073,-0.0435,-0.0949,-0.0135,-0.0227,-0.0053
"CN(C)CCCOc1ccc(-c2ccc3ncc4c(c3c2)n(C2CCOCC2)c(=O)n4C)cn1 [AZD0156] + C[C@@H]1COCCN1C2=NC(=NC(=C2)C3(CC3)[S@](=N)(=O)C)C4=C5C=CNC5=NC=C4 [AZD6738] (first compound max 1 µM, 7x7, partner max 10 µM)",-0.0619,0.0914,-0.0178,0.111,-0.112,-0.0485,-0.0217,0.0196,-0.0267,0.0132,-0.0313,-0.0424,0.0711,-0.0384,0.0229,0.0015,0.0529,-0.0662,-0.0227
"COc1cccc(OCCCN)c1-c1cc(Nc2cnc(C#N)cn2)n[nH]1 [Prexasertib] + C[C@@H]1COCCN1C2=NC(=NC(=C2)C3(CC3)[S@](=N)(=O)C)C4=C5C=CNC5=NC=C4 [AZD6738] (first compound max 1 µM, 7x7, partner max 10 µM)",-0.0018,-0.0172,0.0296,-0.0244,0.0197,0.0414,0.005,0.0392,-0.0298,-0.0418,-0.0242,-0.0668,-0.0214,-0.002,-0.0122,0.0084,-0.0058,0.0134,-0.0064
"COc1cccc2c1C(=O)c1c(O)c3c(c(O)c1C2=O)C[C@@](O)(C(=O)CO)C[C@@H]3O[C@H]1C[C@H](N)[C@H](O)[C@H](C)O1 [Doxorubicin] + Cc1cc2ncnn2cc1Nc1ncc2c(n1)n(C1CCOCC1)c(=O)n2C [AZD7648] (first compound max 1 µM, 7x7, partner max 10 µM)",0.0553,0.0514,0.0998,-0.0164,0.0408,0.0479,0.0511,-0.0513,0.0176,0.0276,0.035,-0.0357,0.129,0.0336,0.145,0.0511,0.0506,-0.0358,-0.0247
"CCN(CCO)CCCOc1ccc2c(Nc3cc(CC(=O)Nc4cccc(F)c4)[nH]n3)ncnc2c1 [AZD2811] + O=C(c1cc(Cc2n[nH]c(=O)c3ccccc23)ccc1F)N1CCN(C(=O)C2CC2)CC1 [Olaparib] (first compound max 1 µM, 7x7, partner max 10 µM)",-0.0163,0.0317,0.0044,0.0343,0.0191,-0.0041,-0.0154,-0.072,0.0053,0.0277,0.0144,-0.0472,0.0418,-0.016,-0.0602,0.0043,-0.0101,-0.0368,-0.0368
"CCN(CCO)CCCOc1ccc2c(Nc3cc(CC(=O)Nc4cccc(F)c4)[nH]n3)ncnc2c1 [AZD2811] + C=CCn1c(=O)c2cnc(Nc3ccc(N4CCN(C)CC4)cc3)nc2n1-c1cccc(C(C)(C)O)n1 [AZD1775] (first compound max 1 µM, partner max 1 µM)",-0.0298,0.0436,-0.0365,-0.0866,0.0003,0.0224,0.0278,-0.0232,0.0223,0.0106,-0.0373,-0.0301,0.089,0.023,-0.0253,-0.0577,0.0538,-0.0028,-0.0195
"CN(C)CCCOc1ccc(-c2ccc3ncc4c(c3c2)n(C2CCOCC2)c(=O)n4C)cn1 [AZD0156] + C=CCn1c(=O)c2cnc(Nc3ccc(N4CCN(C)CC4)cc3)nc2n1-c1cccc(C(C)(C)O)n1 [AZD1775] (first compound max 1 µM, partner max 1 µM)",-0.0329,-0.0429,-0.0497,-0.0492,-0.0426,-0.0429,-0.0364,-0.0497,-0.0268,0.0106,-0.0229,-0.0493,-0.0624,-0.0363,-0.0204,0.0083,-0.0158,-0.0635,-0.0734
"CCc1c2c(nc3ccc(O)cc13)-c1cc3c(c(=O)n1C2)COC(=O)[C@]3(O)CC [SN-38] + CN(C)CCCOc1ccc(-c2ccc3ncc4c(c3c2)n(C2CCOCC2)c(=O)n4C)cn1 [AZD0156] (first compound max 0.3 µM, 7x7, partner max 1 µM)",-0.103,-0.0073,0.0579,0.0114,-0.012,0.0527,0.0255,0,-0.0369,-0.0558,-0.0648,-0.0078,-0.0073,-0.0318,0.0993,-0.0243,0.107,-0.0353,-0.006
